From patent publication US12516038B2, “Inhibitors of antigen presentation by HLA-DR” (Janssen Pharmaceutica NV, priority 2020, dated 2026) come the findings set out here.

Bounds are passed on as bounds.

Test [1] concerns the target HLA-DRB1*0401 (Homo sapiens (Human), UniProt P01903+P01911, A100K/A169T/DEL228-266/F76Y/I96L/K127E/L162R/M171V/N62H/P40V/Q125Y/R42H/S133A/S149N/S66Y/V115G/V209L/W38E). Description: HLA-DR4 HTRF assay. The class given is binding. The settings on record: inhibition of loading of Alexa Fluor 647-labeled Cit-CII peptide onto HLA-DR4 (CLIP cleaved). The text has this:
(§1) The screening was made through two sets of HLA-DR/peptide-dependent assays: a peptide-dependent Homogeneous Time Resolved Fluorescence (HTRF) binding assay followed by an HLA-DR dependent, peptide-specific T cell functional assay (HLA-DR4-restricted peptide-specific T cell-based assay hybridoma assay). The HTRF binding assay was designed to measure the ability of the small molecule to inhibit the loading of a fluorescently labeled high-affinity peptide onto HLA-DR peptide binding groove. The peptide-specific T cell functional assay assesses T cell activation resulting from proper peptide presentation onto HLA-DR expressed on the surface of the antigen-presenting cells to the T cell and is used to screen compounds able to inhibit such HLA-DR/peptide-dependent T cell activation.
The HLA-DR4 HTRF assay is based on HTRF technology and designed to measure ability of compounds to prevent loading of high-affinity Alexa Fluor 647-labeled Citrullinated Collagen 111236-1249 peptide (named Cit-CII/AF647, aa1236-1249, LQYM-Cit-ADQAAGGLR; Alexa Fluor 647 dye commercially available from Invitrogen) onto HLA-DRB1*0401. The HTRF assay technology is based on the energy transfer between two fluorophores, a donor and an acceptor, when in close proximity. The HLA-DR4 protein construct was uniquely designed for this assay and has (i) the α and […] subunits fused to human Fc chains and (ii) the invariant chain-associated peptide (CLIP peptide, aa85-101), the universal moderate/low-affinity HLA-DR binder, attached to the beta chain through a HRV3C protease-cleavable linker.
Because of the low stability of peptide free HLA-DR4 heterodimer, the construct was purified and delivered with CLIP peptide attached to the N-terminal of the β chain. The HLA-DR4 heterodimer was pre-treated with 3 μL HRV3C protease (Novagen E71493-3) (˜2 U/μL) per mg of the cleavable protein to cleave CLIP peptide and incubated overnight (>16 hrs) at 4° C. This method yielded at least 80% cleavage and allowed the CLIP peptide to be potentially exchanged with the fluorescently labeled high affinity cit-CII1236-1249 peptide. A batch of […] protein with CLIP cleaved was prepared for multiple experiments and was stable for several months when stored at 4° C.
In this assay, anti-human Fc antibody labeled with Tb-Cryptate probe was used as the donor (commercially available from Cisbio—PAb Anti-human IgG-Tb Cryptate, Cat #61HFCTAB) and high affinity peptide Citrullinated CII (cit-CII) labeled with Alexa 647 fluorophore was utilized as the acceptor. Inhibitors of the exchange of the pre-cleaved CLIP peptide for the high affinity cit-CII1236-1249 peptide onto HLA-DRB1*04:01 caused a decrease in HTRF signal as measured by the ratio of the 665 nm/620 nm emitted signal. Screening compounds were robotically pre-dispensed (150 nL, Hummingbird, DigiLab/CyBio AG) onto black, round bottom, nontreated, 1536-well assay plates (Corning #3939), were incubated with 3 nM HLA-DR4 (with CLIP cleaved) plus 1 nM Human IgG-Tb (anti-Fc-Tb) Antibody for 45 min prior to addition of 40 nM Cit-CII peptide labeled with Alexa-647. The negative control was DMSO plus 1 nM Human IgG-Tb (anti-Fc-Tb) Antibody, incubated for 45 minutes before addition of 40 nM Cit-CII peptide labeled with Alexa-647. The positive control was DMSO plus 3 nM HLA-DR4 (with CLIP cleaved) plus 1 nM Human IgG-Tb (anti-Fc-Tb) Antibody with 40 nM Cit-CII peptide labeled with Alexa-647 added after a 45-minute incubation. Plates were centrifuged at 1000 rpm for 1 minute and then incubated at 37° C., at 90% relative humidity for 90 minutes. After incubation, plates were read on a spectrophotometer, the Pherastar FS (BMG Labtech), in HTRF mode. The HTRF ratio as well as percent inhibition was calculated. Curve fitting and IC50 calculation for dose response data was performed by Microsoft Excel, 3DX (Janssen proprietary software) or Graphpad Prism (Graphpad Software, San Diego, CA). […]

Test [2] has as its system HLA-DR4 restricted mouse T cell hybridoma line (DR4.CII.36.8) with HLA-DRB1*04:01-expressing Boleth cells. Briefly: HLA-DR4-restricted peptide-specific T cell-based assay (hybridoma assay). The settings on record: Mus musculus, T-cell, 6 h, inhibition of IL-2 production, CII259-273 peptide presented by Boleth cells.
Text: as §1
HLA-DR4-Restricted Peptide-Specific T Cell-Based Assay (Hybridoma Assay)
The hybridoma assay was used to measure compound inhibition of TL-2 production from an HLA-DR4 restricted mouse T cell hybridoma line (DR4.CII.36.8) that was antigen-specific for collagen II259-273 (CII259-273) peptide when presented with an HLA-DR4 expressing Antigen Presenting Cell (APC) cell line (i.e., Boleth).
To the HLA-DRB1*04:01-expressing B cell line (Boleth cell line from International Histocompatibility Working Group (IHWG), ref #IHW09031) was presented the collagen II 259-273 peptide (CII259-273, GIAGFKGEQGPKGEP) to mouse T cell hybridoma (DR4.CII.36.8 T cell hybridoma; clone 36.8, expressing a CII259-273-specific, HLA-DRB1*04:01-restricted T cell receptor). Upon proper CII259-273 peptide presentation, the T cell hybridoma was activated and thus produced IL-2 cytokine, whose level in the cell culture supernatant was detected using mouse IL-2 AlphaLISA kit (Perkin Elmer, Cat: AL511F).
This assay was performed in a 384-well plate (polypropylene V-bottom Greiner bio-one, ref #784075) by: (i) pre-incubation of 20 μL of 1.25 million/mL Boleth cells (25,000 cells) resuspended in DMEM/1% fetal calf serum (FCS; Gibco, ref #16140-071) with 20 μL of 2.5× final concentration of compound of interest in DMEM/1% serum/0.75% DMSO at 37° C. for 1 hr in the incubator, then (ii) 10 μL of 5 million/mL (50,000 cells) DR4.CII.36.8 T cell hybridoma cells resuspended in DMEM/1% FCS was added and incubated for 6 h at 37° C. in the incubator. Supernatant was then collected and mouse IL-2 detected using AlphaLISA kit (ref #AL511F). Compounds were tested in duplicate, with 8-point titration. Mean±SD of AlphaLISA units at each compound concentration was used for compound IC50 calculation. The negative control for this experiment was run without peptide stimulation and used a DMSO vehicle wherein no compound of interest was added. The positive control was run with peptide stimulation and used a DMSO vehicle wherein no compound of interest was added. Both the negative and positive controls were run in 8 replicates each. Curve fitting and IC50 calculation for dose response data was performed by GraphPad software 6 or higher (GraphPad Software, San Diego, CA). Dose response data was plotted versus the log of compound concentration and IC50 was determined using 4-parameter logistic (4-PL) curve fitting.

Take `O=C1CCOc2cc(OC(c3ccncc3)c3ccccn3)ccc21` (racemic) [Example 6, (R,S)-7-(Pyridin-2-yl(pyridin-4-yl)methoxy)chroman-4-one]: the IC50 is 1800 nM in test [1] and 1400 nM in test [2].

In the case of `N#Cc1ccc(C(Oc2ccc3c(c2)OCCC3=O)c2ccncc2)cc1` (racemic) [Example 10, (R,S)-4-(((4-Oxochroman-7-yl)oxy)(pyridin-4-yl)methyl)benzonitrile], the figures for the IC50 in test [1] and in test [2] were 770 nM and 8700 nM, respectively. In the case of `Cc1c(OC(c2ccncc2)c2ccc(C(N)=O)cc2)ccc2c1OC(C)(C)CC2=O` (racemic) [Example 113, (R,S)-4-(pyridin-4-yl((2,2,8-trimethyl-4-oxochroman-7-yl)oxy)methyl)benzamide], the 50% inhibitory concentration (IC50) in test [1] stood at 820 nM; in test [2], 1000 nM. In the same order, the values of `Cc1c(OC2CCCc3cc(C#N)ccc32)ccc2c1OCCC2=O` (racemic) [Example 122, (R,S)-5-((8-Methyl-4-oxochroman-7-yl)oxy)-5,6,7,8-tetrahydronaphthalene-2-carbonitrile] are 1100 nM and 15000 nM.

`Cc1c(OC2CCCc3cc(C(N)=O)ccc32)ccc2c1OCCC2=O` (racemic) [Example 123, (R,S)-5-((8-Methyl-4-oxochroman-7-yl)oxy)-5,6,7,8-tetrahydronaphthalene-2-carboxamide]: the results for the IC50 in test [1] and in test [2] were 520 nM and 15000 nM, respectively. The corresponding values for `O=C1CCOc2cc(O[C@@H](c3ccncc3)c3cccc(O)c3)ccc21` (single isomer, unassigned) [Example 5b, (*S)-7-((3-Hydroxyphenyl)(pyridin-4-yl)methoxy)chroman-4-one] are 14000 nM and 5200 nM.

As to `N#Cc1ccccc1[C@@H](Oc1ccc2c(c1)OCCC2=O)c1ccncc1` (single isomer, unassigned) [Example 7b, (*S)-2-(((4-Oxochroman-7-yl)oxy)(pyridin-4-yl)methyl)benzonitrile], the IC50 in test [1] came out at 960 nM; in test [2] it was 5400 nM. Turning to `NC(=O)c1ccccc1[C@H](Oc1ccc2c(c1)OCCC2=O)c1ccncc1` (single isomer, unassigned) [Example 8a, (*R)-2-(((4-Oxochroman-7-yl)oxy)(pyridin-4-yl)methyl)benzamide], the figures for the IC50 in test [1] and in test [2] were 680 nM and greater than 15000 nM, respectively. In the same order, the values of `NC(=O)c1ccccc1[C@@H](Oc1ccc2c(c1)OCCC2=O)c1ccncc1` (single isomer, unassigned) [Example 8b, (*S)-2-(((4-Oxochroman-7-yl)oxy)(pyridin-4-yl)methyl)benzamide] are 820 nM and 6500 nM. In the same order, the values of `N#Cc1ccc([C@H](Oc2ccc3c(c2)OCCC3=O)c2ccncc2)cc1` (single isomer, unassigned) [Example 10b, (*S)-4-(((4-oxochroman-7-yl)oxy)(pyridin-4-yl)methyl)benzonitrile] are 910 nM and greater than 15000 nM.

As to `COc1cccc([C@H](Oc2ccc3c(c2)OCCC3=O)c2ccncc2)c1` (single isomer, unassigned) [Example 13a, (*R)-7-((3-methoxyphenyl)(pyridin-4-yl)methoxy)chroman-4-one], the half-maximal inhibitory concentration (IC50) is 2000 nM in test [1] and greater than 15000 nM in test [2].

Regarding `COc1ccccc1[C@@H](Oc1ccc2c(c1)OCCC2=O)c1ccncc1` (single isomer, unassigned) [Example 14b, (*S)-7-((2-Methoxyphenyl)(pyridin-4-yl)methoxy)chroman-4-one], the half-maximal inhibitory concentration (IC50) in test [1] was found to be 1900 nM; in test [2], 11000 nM.

For `Cc1cc([C@@H](Oc2ccc3c(c2)OCCC3=O)c2ccc(C(N)=O)cc2)ccn1` (single isomer, unassigned) [Example 15b, (*S)-4-((2-Methylpyridin-4-yl)((4-oxochroman-7-yl)oxy)methyl)benzamide], the figures for the 50% inhibitory concentration (IC50) in test [1] and in test [2] were 770 nM and 8100 nM, respectively. In the same order, the values of `O=C1CCOc2cc(O[C@@H](c3ccncc3)c3ccc(OCc4ccccc4)cc3)ccc21` (single isomer, unassigned) [Example 16a, (*R)-7-((4-(benzyloxy)phenyl)(pyridin-4-yl)methoxy)chroman-4-one] are 8100 nM and 12000 nM. `O=C1CCOc2cc(O[C@H](c3ccncc3)c3ccc(OCc4ccccc4)cc3)ccc21` (single isomer, unassigned) [Example 16b, 7-((4-(benzyloxy)phenyl)(pyridin-4-yl)methoxy)chroman-4-one]: the results for the 50% inhibitory concentration (IC50) in test [1] and in test [2] were 9900 nM and greater than 15000 nM, respectively. The corresponding values for `NC(=O)c1ccc(C(Oc2ccc3c(c2)OCCC3=O)c2ccnc(C(F)(F)F)c2)cc1` (single isomer, unassigned) [Example 18a, (*R)-4-(((4-oxochroman-7-yl)oxy)(2-(trifluoromethyl)pyridin-4-yl)methyl)benzamide] are 1400 nM and greater than 15000 nM. As for `CCCc1c(O[C@H](c2ccncc2)c2ccc(C(N)=O)cc2)ccc2c1OCCC2=O` (single isomer, unassigned) [Example 80b, (*S)-4-(((4-Oxo-8-propylchroman-7-yl)oxy)(pyridin-4-yl)methyl)benzamide], the IC50 in test [1] is 960 nM.
